Results: patent publication US10174035B2, “6-morpholinyl-2-pyrazolyl-9H-purine derivatives and their use as PI3K inhibitors” (Daiichi Sankyo Company, Limited, priority 2015, dated 2019)

Target: recombinant PI3K δ enzyme (Homo sapiens (Human), UniProt O00329)
Assay: In vitro enzyme assay (Kinase-Glo luminescent kinase assay), PI3Kδ
Type: biochemical
Procedure: The Kinase-Glo luminescent kinase assay kit (from Promega) was used to measure kinase activity. In this assay, amount of ATP remaining in solution following a kinase reaction is measured. The effect of compounds on PI3Kδ inhibition was carried out by adding 2.29 μg/ml of recombinant PI3K δ enzyme (Proteros, Germany) to reaction mixture containing assay buffer (50 mM HEPES, pH 7.4, 50 mM NaCl, 0.05% CHAPS) supplemented with 10 mM MgCl2, 5 mM DTT, 60 μM Phosphatidyl inositol bisphosphate (PIP2) and 10 μM ATP in the absence or presence of different concentrations of the compounds in a final volume of 15 μl/well, in a 384 well plate. The reaction mixture was incubated for 2 hours at room temperature. At the end of incubation period the equal volume of Kinase-Glo plus (Promega, V3772), was added per well and the luminescence was measured after incubating for 10 minutes at room temperature in dark. Results were calculated by measuring the luminescence units of test samples to blanks containing no enzyme.
The compounds of the present invention were tested for their selectivity for PI3Kδ over PI3Kα, PI3Kβ and PI3Kγ following the above assay using specific recombinant enzymes (Proteros, Germany) for each kinase. Assay condition of kinase assay (PI3Kα, PI3Kβ, PI3Kγ and PI3Kδ) was as follows. Enzyme: 2.29 μg/mL; ATP: 10 μM; PIP2 substrate: 60 μM and Reaction Time: 2 hours.

recombinant PI3K δ enzyme, sequence (O00329 whole entry, species assumed): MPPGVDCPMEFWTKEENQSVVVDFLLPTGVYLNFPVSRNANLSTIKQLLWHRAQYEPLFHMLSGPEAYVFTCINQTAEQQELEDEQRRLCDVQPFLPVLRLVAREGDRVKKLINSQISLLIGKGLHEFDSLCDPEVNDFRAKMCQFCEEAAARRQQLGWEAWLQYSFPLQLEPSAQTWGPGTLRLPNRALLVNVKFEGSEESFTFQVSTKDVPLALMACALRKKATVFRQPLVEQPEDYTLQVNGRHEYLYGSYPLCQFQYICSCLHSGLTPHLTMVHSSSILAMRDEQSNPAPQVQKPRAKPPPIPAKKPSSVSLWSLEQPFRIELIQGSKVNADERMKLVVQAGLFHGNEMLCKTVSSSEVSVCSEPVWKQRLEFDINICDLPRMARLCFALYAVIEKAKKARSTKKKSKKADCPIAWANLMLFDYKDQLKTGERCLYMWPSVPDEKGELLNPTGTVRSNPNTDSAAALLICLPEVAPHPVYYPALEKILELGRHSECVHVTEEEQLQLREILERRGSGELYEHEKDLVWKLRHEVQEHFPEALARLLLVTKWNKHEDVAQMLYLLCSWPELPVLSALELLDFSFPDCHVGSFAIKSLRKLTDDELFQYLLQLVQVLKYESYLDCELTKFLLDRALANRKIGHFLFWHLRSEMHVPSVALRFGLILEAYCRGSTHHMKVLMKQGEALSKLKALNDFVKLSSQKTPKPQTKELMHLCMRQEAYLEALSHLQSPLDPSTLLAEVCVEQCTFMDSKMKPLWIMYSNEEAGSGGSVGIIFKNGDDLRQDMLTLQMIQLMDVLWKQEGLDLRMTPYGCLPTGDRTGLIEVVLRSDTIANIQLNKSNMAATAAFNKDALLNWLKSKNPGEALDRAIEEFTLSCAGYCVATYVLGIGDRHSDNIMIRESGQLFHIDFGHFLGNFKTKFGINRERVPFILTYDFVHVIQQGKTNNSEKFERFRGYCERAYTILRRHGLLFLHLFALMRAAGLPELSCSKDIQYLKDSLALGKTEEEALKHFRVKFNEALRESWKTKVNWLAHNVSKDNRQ
recombinant PI3K δ enzyme, sequence (P27986 whole entry partner, species assumed): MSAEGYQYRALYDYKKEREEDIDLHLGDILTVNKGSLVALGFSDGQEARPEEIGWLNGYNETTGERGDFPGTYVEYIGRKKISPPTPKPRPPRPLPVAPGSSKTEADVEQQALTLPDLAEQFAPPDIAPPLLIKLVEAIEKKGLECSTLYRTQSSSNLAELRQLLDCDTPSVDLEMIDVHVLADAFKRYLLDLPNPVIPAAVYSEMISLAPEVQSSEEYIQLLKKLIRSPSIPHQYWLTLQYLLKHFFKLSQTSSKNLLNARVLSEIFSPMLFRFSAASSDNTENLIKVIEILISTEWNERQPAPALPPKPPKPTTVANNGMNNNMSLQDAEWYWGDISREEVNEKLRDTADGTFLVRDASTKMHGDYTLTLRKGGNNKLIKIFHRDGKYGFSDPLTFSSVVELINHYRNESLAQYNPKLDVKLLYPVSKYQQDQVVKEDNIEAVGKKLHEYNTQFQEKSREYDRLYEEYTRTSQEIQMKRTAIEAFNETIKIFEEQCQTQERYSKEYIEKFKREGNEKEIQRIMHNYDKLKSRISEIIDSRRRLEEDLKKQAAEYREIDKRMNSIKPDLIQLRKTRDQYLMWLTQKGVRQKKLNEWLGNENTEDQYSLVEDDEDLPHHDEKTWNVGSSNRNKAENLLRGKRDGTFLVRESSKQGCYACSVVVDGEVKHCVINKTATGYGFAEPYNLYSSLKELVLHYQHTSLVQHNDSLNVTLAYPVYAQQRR

SMILES	IC50 [nM]
Cc1nn(C)c(C)c1-c1nc2[nH]c(C(=O)N3CCC(N4CCOCC4)CC3)nc2c(N2CCOCC2)c1F [Compound No. 93]	26
C[C@@H]1CN(C2CN(C(=O)c3nc4c(N5CCOCC5)cc(-c5cnn(C)c5)nc4[nH]3)C2)C[C@H](C)O1 [Compound No. 119, {3-[(2R,6S)-2,6-dimethylmorpholin-4-yl]azetidin-1-yl}[5-(1-methyl-1H-pyrazol-4-yl)-7-(morpholin-4-yl)-3H-imidazo[4,5-b]pyridin-2-yl]methanone]	5
CN(C(=O)c1nc2c(N3CCOCC3)cc(-c3cnn(C)c3)nc2[nH]1)C1CCN(C2CCOCC2)CC1 [Compound No. 121, N-Methyl-5-(1-methyl-1H-pyrazol-4-yl)-7-(morpholin-4-yl)-N-[1-(tetrahydro-2H-pyran-4-yl)piperidin-4-yl]-3H-imidazo[4,5-b]pyridine-2-carboxamide]	52
Cn1cc(-c2cc(N3CCOCC3)c3nc(C(=O)N4CC(N5CCNC(=O)C5)C4)[nH]c3n2)cn1 [Compound No. 128, 4-(1-{[5-(1-Methyl-1H-pyrazol-4-yl)-7-(morpholin-4-yl)-3H-imidazo[4,5-b]pyridin-2-yl]carbonyl}azetidin-3-yl)piperazin-2-one]	19
CN1CCN(C2CN(C(=O)c3nc4c(N5CCOCC5)cc(-c5cnn(C)c5)nc4[nH]3)C2)CC1=O [Compound No. 129, 1-Methyl-4-(1-{[5-(1-methyl-1H-pyrazol-4-yl)-7-(morpholin-4-yl)-3H-imidazo[4,5-b]pyridin-2-yl]carbonyl}azetidin-3-yl)piperazin-2-one]	10
CN1CCN(C2CN(C(=O)c3nc4c(N5CCOCC5)nc(-c5cnn(C)c5)nc4[nH]3)C2)CC1=O [Compound No. 130, 1-Methyl-4-(1-{[2-(1-methyl-1H-pyrazol-4-yl)-6-(morpholin-4-yl)-9H-purin-8-yl]carbonyl}azetidin-3-yl)piperazin-2-one]	10
CN(C(=O)c1nc2c(N3CCOCC3)cc(-c3cnn(C)c3)nc2[nH]1)C1CCN(C2COC2)CC1 [Compound No. 131, N-Methyl-5-(1-methyl-1H-pyrazol-4-yl)-7-(morpholin-4-yl)-N-[1-(oxetan-3-yl)piperidin-4-yl]-3H-imidazo[4,5-b]pyridine-2-carboxamide]	146
Cn1cc(-c2nc(N3CCOCC3)c3nc(C(=O)NCCc4cccnc4)[nH]c3n2)cn1 [compound 1, 2-(1-Methyl-1H-pyrazol-4-yl)-6-(morpholin-4-yl)-N-[2-(pyridin-3-yl)ethyl]-9H-purine-8-carboxamide]	61
Cn1cc(-c2nc(N3CCOCC3)c3nc(C(=O)NCCN4CCOCC4)[nH]c3n2)cn1 [compound 2, 2-(1-Methyl-1H-pyrazol-4-yl)-6-(morpholin-4-yl)-N-[2-(morpholin-4-yl)ethyl]-9H-purine-8-carboxamide]	48
Cn1cc(-c2nc(N3CCOCC3)c3nc(C(=O)N4CC(O)C4)[nH]c3n2)cn1 [compound 4, (3-Hydroxyazetidin-1-yl)[2-(1-methyl-1H-pyrazol-4-yl)-6-(morpholin-4-yl)-9H-purin-8-yl]methanone]	27
Cn1cc(-c2nc(N3CCOCC3)c3nc(C(=O)N4CCN5C(=O)COC[C@H]5C4)[nH]c3n2)cn1 [compound 6, (9aR)-8-{[2-(1-Methyl-1H-pyrazol-4-yl)-6-(morpholin-4-yl)-9H-purin-8-yl]carbonyl}hexahydropyrazino[2,1-c][1,4]oxazin-4(3H)-one]	36
Cn1cc(-c2nc(N3CCOCC3)c3nc(C(=O)N4CCC(N5CCOCC5=O)CC4)[nH]c3n2)cn1 [compound 7, 4-(1-{[2-(1-Methyl-1H-pyrazol-4-yl)-6-(morpholin-4-yl)-9H-purin-8-yl]carbonyl}piperidin-4-yl)morpholin-3-one]	42
Cc1nn(C)cc1-c1nc(N2CCOCC2)c2nc(C(=O)N3CCN(C4CCOCC4)CC3)[nH]c2n1 [compound 9, [2-(1,3-Dimethyl-1H-pyrazol-4-yl)-6-(morpholin-4-yl)-9H-purin-8-yl][4-(tetrahydro-2H-pyran-4-yl)piperazin-1-yl]methanone]	9
Cn1cc(-c2nc(N3CCOCC3)c3nc(C(=O)N4CCN(C5CCOCC5)CC4)[nH]c3n2)cn1 [compound 11, [2-(1-Methyl-1H-pyrazol-4-yl)-6-(morpholin-4-yl)-9H-purin-8-yl][4-(tetrahydro-2H-pyran-4-yl)piperazin-1-yl]methanone]	26
Cc1nn(C)cc1-c1nc(N2CCOCC2)c2nc(C(=O)N3CCC(C(C)(C)O)CC3)[nH]c2n1 [compound 12, [2-(1,3-Dimethyl-1H-pyrazol-4-yl)-6-(morpholin-4-yl)-9H-purin-8-yl][4-(2-hydroxypropan-2-yl)piperidin-1-yl]methanone]	34
Cn1cc(-c2nc(N3CCOCC3)c3nc(C(=O)N4CCC[C@H](N5CCOCC5)C4)[nH]c3n2)cn1 [compound 13, [2-(1-Methyl-1H-pyrazol-4-yl)-6-(morpholin-4-yl)-9H-purin-8-yl][(3S)-3-(morpholin-4-yl)piperidin-1-yl]methanone]	88
Cn1cc(-c2nc(N3CCOCC3)c3nc(C(=O)N4CCS(=O)(=O)CC4)[nH]c3n2)cn1 [compound 15, (1,1-Dioxidothiomorpholin-4-yl)[2-(1-methyl-1H-pyrazol-4-yl)-6-(morpholin-4-yl)-9H-purin-8-yl]methanone]	123
Cc1n[nH]c(C)c1-c1nc(N2CCOCC2)c2nc(C(=O)N3CCC(N4CCOCC4)CC3)[nH]c2n1 [compound 16, [2-(3,5-Dimethyl-1H-pyrazol-4-yl)-6-(morpholin-4-yl)-9H-purin-8-yl][4-(morpholin-4-yl)piperidin-1-yl]methanone]	88
Cn1cc(-c2nc(N3CCOCC3)c3nc(C(=O)N4CCC(N5CCOCC5)CC4)[nH]c3n2)c(C(F)(F)F)n1 [compound 17, {2-[1-Methyl-3-(trifluoromethyl)-1H-pyrazol-4-yl]-6-(morpholin-4-yl)-9H-purin-8-yl}[4-(morpholin-4-yl)piperidin-1-yl]methanone]	12
CC(C)n1cc(-c2nc(N3CCOCC3)c3nc(C(=O)N4CCC(N5CCOCC5)CC4)[nH]c3n2)cn1 [compound 18, [4-(Morpholin-4-yl)piperidin-1-yl]{6-(morpholin-4-yl)-2-[1-(propan-2-yl)-1H-pyrazol-4-yl]-9H-purin-8-yl}methanone]	230
Cn1cc(-c2nc(N3CCOCC3)c3nc(C(=O)N4CCNCC4)[nH]c3n2)cn1 [compound 20, [2-(1-Methyl-1H-pyrazol-4-yl)-6-(morpholin-4-yl)-9H-purin-8-yl](piperazin-1-yl)methanone]	86
CCn1c(C(=O)N2CCC(N(C)C)CC2)nc2c(N3CCOCC3)nc(-c3cnn(C)c3)nc21 [compound 21, [4-(Dimethylamino)piperidin-1-yl][9-ethyl-2-(1-methyl-1H-pyrazol-4-yl)-6-(morpholin-4-yl)-9H-purin-8-yl]methanone]	313
CCn1c(C(=O)N2CCC(N3CCOCC3)CC2)nc2c(N3CCOCC3)nc(-c3cnn(C)c3)nc21 [compound 22, [9-Ethyl-2-(1-methyl-1-pyrazol-4-yl)-6-(morpholin-4-yl)-9H-purin-8-yl][4-(morpholin-4-yl)piperidin-1-yl]methanone]	368
Cn1cc(-c2nc(N3CCOCC3)c3nc(C(=O)N4CCC(N5CCOCC5)CC4)n(C)c3n2)cn1 [compound 23, [9-Methyl-2-(1-methyl-1H-pyrazol-4-yl)-6-(morpholin-4-yl)-9H-purin-8-yl][4-(morpholin-4-yl)piperidin-1-yl]methanone]	198
Cn1cc(-c2nc(N3CCOCC3)c3nc(C(=O)N4CCN(C(=O)c5ncccn5)CC4)[nH]c3n2)cn1 [compound 25, [2-(1-Methyl-1H-pyrazol-4-yl)-6-(morpholin-4-yl)-9H-purin-8-yl][4-(pyrimidin-2-ylcarbonyl)piperazin-1-yl]methanone]	99
CC(=O)NC1CCN(C(=O)c2nc3c(N4CCOCC4)nc(-c4cnn(C)c4)nc3[nH]2)CC1 [compound 26, N-(1-{[2-(1-methyl-1H-pyrazol-4-yl)-6-(morpholin-4-yl)-9H-purin-8-yl]carbonyl}piperidin-4-yl)acetamide]	101
Cn1cc(-c2nc(N3CCOCC3)c3nc(C(=O)N4CCN(c5ncccn5)CC4)[nH]c3n2)cn1 [compound 27, [2-(1-Methyl-1H-pyrazol-4-yl)-6-(morpholin-4-yl)-9H-purin-8-yl][4-(pyrimidin-2-yl)piperazin-1-yl]methanone]	128
Cn1cc(-c2nc(N3CCOCC3)c3nc(C(=O)N4CCC(NS(C)(=O)=O)CC4)[nH]c3n2)cn1 [compound 28, N-(1-{[2-(1-methyl-1H-pyrazol-4-yl)-6-(morpholin-4-yl)-9H-purin-8-yl]carbonyl}piperidin-4-yl)methanesulfonamide]	69
Cn1cc(-c2nc(N3CCOCC3)c3nc(C(=O)N4CCN(C(=O)Cc5cnccn5)CC4)[nH]c3n2)cn1 [compound 29, 1-(4-{[2-(1-Methyl-1H-pyrazol-4-yl)-6-(morpholin-4-yl)-9H-purin-8-yl]carbonyl}piperazin-1-yl)-2-(pyrazin-2-yl)ethanone]	140
Cn1cc(-c2nc(N3CCOCC3)c3nc(C(=O)N4CCn5ccnc5C4)[nH]c3n2)cn1 [compound 30, 5,6-Dihydroimidazo[1,2-a]pyrazin-7(8H)-yl[2-(1-methyl-1H-pyrazol-4-yl)-6-(morpholin-4-yl)-9H-purin-8-yl]methanone]	627
